According to patent US8410138B2, “Compounds for activating TGF-beta signaling” (The Board of Trustees of the Leland Stanford Junior …, priority 2007, dated 2013):
Like-named read-outs stand apart in the source and are kept apart here.

How the values were obtained:
[1] = tested on: HDAC activity in HeLa nuclear extracts (HDAC 1, HDAC 2, SIRT 1); details: FIG. 8B
Source text: A commercially available assay was used to measure HDAC inhibitory activity of the present small-molecule compounds.

[2] = tested on: TGF-β-responsive genes in MFB-F11 fibroblasts; experiment: Microarray of TGF-β pathway gene expression in tgfb1−/− fibroblasts; type: cell-based, mouse; details: 1, 5, 24 hours
Procedure: (§1) FIG. 1H is a graph showing the relative amount of surviving 6-7 DIV hippocampal neurons of E16 mice following exposure to culture medium (CM) alone, 13A04 (3 μM), or CM containing Aβ at 2 or 5 μM with TGF-β1 (10 ng/ml) or 13A04 (3 μM). After 24 hours, cultures were fixed and surviving cells were counted. Data represent mean±SEM, n=3-7 fields counted per plate. All conditions were compared to Aβ using the Mann-Whitney test (* p<0.05, ** p<0.01). FIG. 1I is a graph showing the relative gene expression levels of the indicated TGF-β-responsive genes induced in MFB-F11 fibroblasts stimulated with TGF-β1 (yellow) or 13A04 (blue) for 24 h. mRNA was extracted, labeled and hybridized to gene expression arrays tailored for the TGF-β pathway.
A microarray assay was used to identify changes in gene expression caused by stimulating tgfb1^−/− fibroblasts with TGF-β1 or 13A04. mRNA was harvested 1, 5, and 24 hours following stimulation of tgfb1^−/− fibroblasts with TGF-β1 (or control) and analyzed for differential expression of 128 genes related to TGF-β signaling, using a commercially available filter array (Superarray Bioscience Corp.; FIG. 1I). […]

[3] = tested on: TGF-β signaling (SBE-SEAP reporter) in MFB-F11 cells; type: cell-based, mouse; details: for Relative TGF-β activity, fold change compared with vehicle: cell reporter assay
Procedure: All compounds were tested twice, in duplicate, using the MFB-F11 cell line. 80 compounds were selected for further study based on induction of the reporter gene in any of the replicates. These compounds were tested again in MFB-F11 or C6-H4 cells, either alone or in the presence of 100 pg/ml of TGF-β1, to test for synergistic activities.

Aβ deposition = experiment: APP-T41 mice treated for 10 days, Aβ immunostaining; type: in vivo; details: 5-month-old APP-T41 mice, i.p. for 10 days
Procedure: In a further experiment, a group of 5-month-old APP-T41 mice were treated with vehicle or 13A04 (i.p.) for 10 days. At this age, the mice are starting to deposit Aβ which can be quantified in brain sections using Aβ immunostaining.
Transgenic mice that overproduce FAD-mutant human APP reproduce important aspects of AD, including amyloid plaques, neurodegeneration, and cognitive deficits. APP-T41 mice which overexpress APP751^V717I, K670M/N671L in neurons develop amyloid pathology, neurodegeneration, and cognitive deficits.^43,44 Mice overexpressing human tau protein associated with familial forms of fronto-temporal dementia (a dementia characterized by extensive tangle formation) develop neurofibrillary tangles similar to the ones observed in AD and suffer from locomotor deficits around 10 months of age.^45 APP-T41 and Prp-tau^P301L mice^45 can be used to determine the in vivo efficacy of test compounds in treating AD-like diseases.
Compounds can also be tested for their ability to reverse cognitive deficits.

[4] = tested on: TGF-β signaling (SBE-luc reporter) in brain; experiment: Bioluminescence and tissue luciferase in SBE-luc reporter mice; type: in vivo, mouse
Source text: Transgenic mice harboring the SBE-luc reporter gene were generated and used to test the present compositions in vivo. These “reporter mice” mice express SBE-luc (i.e., “the transgene”) in all cells of the body.^1,54 Intraperitoneal injection of luciferin into SBE-luc mice produces bioluminescence generated by luciferase and photons penetrating the skull can be imaged using sensitive camera systems.^1,54
To determine whether 3A and its analogs are bioactive in vivo and able to penetrate the blood brain barrier (BBB), TGF-β1, 3A, 22B02, or 13A04 were injected into reporter mice i.p. or s.q. The animals were then sacrificed at the indicated times following injection. […] There was no obvious activation of the reporter in other organs.
Bioactivity data were confirmed by biochemical measurements of tissue luciferase in hippocampal homogenates (FIG. 3E).
Two-month old SBE-luciferase transgenic mice receive different concentrations of a test compound either s.q., i.p., or orally by gavage. […] Following administration of the test or control compounds, mice are injected with luciferin i.p. At, e.g., 2, 8, and 16 hours following injection of luciferin, the mice are imaged to detect bioluminescence as described above. Brains may be harvested 16 hours following test compound injection, and may be divided sagittally. […]

[5] = tested on: TGF-β signaling in hippocampal neurons; experiment: RFP immunohistochemistry in SBE-lucRT reporter mice; type: in vivo, mouse
Source text: To study TGF-β signaling at the cellular level, additional reporter mice were generated, which express a fusion protein consisting of luciferase, red fluorescent protein […], and thymidine kinase (TK) under control of the SBE promoter (i.e., SBE-lucRT mice).

[6] = tested on: primary hippocampal neurons from E16 mouse embryos; type: cell-based; details: Aβ oligomers inducing 50-70% cell death; 13A04 3 μM, TGF-β1 10 ng/ml; 24 hours
Procedure: as §1
Moreover, the small-molecule TGF-β agonist was not toxic at 3 μM and 10 μM (not shown).
Primary mixed neuronal cultures are exposed to Aβ oligomers and treated with compounds (0 to 10 μM concentration) and cell survival is measured using lactate dehydrogenase (LDH) release or by counting 4,6-diamidino-2-phenylindole (DAPI)-stained cells. […] Neuritic dystrophy in 21 DIV neurons can also be measured by quantifying the tortuosity of neurites as described by Ferreira et al.^70 and modified by others. […] Further incubation of these cells with the present compounds provides a sensitive assay for neuroprotection.

[7] = tested on: TGF-β signaling in the brain; experiment: SBE-luc mice after lipopolysaccharide (LPS) administration; type: in vivo, mouse
Source text: SBE-luc mice can also be used to monitor activation of TGF-β signaling in response to glial activation after lipopolysaccharide (LPS) administration.

[8] = tested on: fibroblasts lacking Smad2, Smad3 or Smad4; experiment: SBE reporter signaling in fibroblasts lacking elements of the TGF-β signaling pathway; type: cell-based
Source text: To understand how the TGF-β signaling agonists function and identify molecular genetic targets in cells, fibroblasts lacking different elements of the TGF-β3 signaling pathway, including Smad2, Smad3, and Smad4, were used in combination with plasmids encoding different inhibitors of the TGF-β signaling pathway to study TGF-β agonists in different backgrounds. For reference, the canonical TGF-β signaling pathway is illustrated in FIG. 2A. The biological actions of TGF-β1 are mediated through interactions with the type 2 TGF beta receptor (TBR2) 2 and the type I TGF beta receptor (TBRI) 3. Betaglycan 4 may participate in the binding of TGF-β1. Receptor activation leads to the phosphorylation of Smad proteins, such as Smad 2/3 5 and Smad 4 6, which translocate to the nucleus 7 to bind to the Smad DNA-binding element (SBE) 8, present in numerous genes, in combination with transcription factors (TF) 9. Smad 7 10 is inhibitory with respect to Smad 2/3 5 phosphorylation. Alternative signaling involves p38 11 and the MAP kinase pathway. TAB1 12 activates TAK1 13, which activates p38 11.
Because Smad2 and Smad3 can substitute for each other, results with Smad2 or Smad3 knock-out fibroblasts were more difficult to interpret. Nonetheless, the synergistic effect of TGF-β1 and 11H was blocked in the absence of Smad2 (FIG. 2B) or Smad3 (not shown). In these assays, signaling is reported via SBE elements, which are specific elements that bind Smad proteins. Thus, the 11H compound must signal through this element. Without being limited to theory, it is believed that the 3A compound functions as a competitive agonist of Smad binding to the SBE, representing a novel target and mode of action.

[9] = tested on: TGF-β reporter gene in hippocampus; experiment: Luciferase activity in SBE-luc mouse hippocampus; type: in vivo; details: 30 mg/kg i.p.; five hours after injection; SBE-luc mice
Procedure: In another experiment performed to asses the ability of the present compounds to activate TGF-β signaling in animals, SBE-luc mice were given either PBS or the 11H compound via i.p. injections as described in Example 10. Following drug or PBS injection, mice were anesthetized with chloral hydrate and perfused with saline. Brains were dissected and snap-frozen. Hippocampal tissues were assayed for luciferase activity.
(§2) SBE-luc mice (T9-7F), 2-4 months of age, 4-5 mice per group, were given either the 11H compound at 30 mg/kg via i.p. injections, or PBS as a control. The 11H compound was completely dissolved in PBS at the concentration of 3 mg/ml. This working solution was given to mice at 10 μl/g body weight to achieve the desired level of 30 mg/kg. Five hours following drug or PBS injection, mice were anesthetized with chloral hydrate and perfused with saline. Brains were dissected and snap-frozen. Hippocampal tissues were homogenized in 100 μl of 1× luciferase assay buffer and 20 μl of the resulting supernatant was used for luciferase assays.

Dissolution in PBS = type: physicochemical
Procedure: as §2

HDAC 1 and 2 = details: read-out: 1050 (HDAC 1 and 2 inhibition); cited from earlier work

trichostatin A
Reduction of HDAC activity [1]: > 90%

CC(C)CN(CC(=O)N(CCc1c[nH]c2ccccc12)Cc1ccccc1)C(=O)c1ccco1 [Compound 13A04]
Expression of TGF-β signaling genes (Fos, Jun, Myc, Smad1, Smad2, Smad3, Interleukin-6) [2]: induced
Relative TGF-β activity, fold change compared with vehicle ([3]; 3 μM): 2.5 fold
Relative TGF-β activity, fold change compared with vehicle ([3]; 10 μM): 6.3 fold
Relative TGF-β activity, fold change compared with vehicle ([3]; 30 μM): 17.6 fold
Relative TGF-β activity, fold change compared with vehicle ([3]; 100 μM): 20.9 fold
Tolerability / side effects (Aβ deposition): well tolerated and no side effects were observed
Aβ deposition versus controls (Aβ deposition; not statistically significant): trend towards reduced Aβ deposition
Reporter activation (bioluminescence) in living mice ([4]; i.p. or s.q. injection, FIG. 3D): dose-dependent manner
TGF-β signaling in the vasculature [5]: No activation
Reporter gene and TGF-β signaling in hippocampal neurons ([5]; RFP immunohistochemistry): activates the reporter gene and TGF-β signaling in hippocampal neurons
Protection of neurons against Aβ toxicity (survival) [6]: consistently protected neurons and increased survival

CC(C(=O)O)c1ccc(-c2ccccc2)c(F)c1 (centres unmarked) [flurbiprofen]
TGF-β signaling in the brain after LPS (bioluminescence) ([7]; FIG. 4E): strongly reduced
Microglial activation after LPS ([7]; data not shown): strongly reduced

TGF-β1: recombinant transforming growth factor-β1, reference activator of the TGF-β signaling pathway
Expression of TGF-β signaling genes (Fos, Jun, Myc, Smad1, Smad2, Smad3, Interleukin-6) [2]: induced
TGF-β signaling in vivo, tissue luciferase in hippocampal homogenates ([4]; peripheral administration, FIG. 3E, indicates BBB passage): activated TGF-β signaling in vivo
Protection of neurons against Aβ toxicity (survival) [6]: consistently protected neurons and increased survival
Signaling in the absence of Smad4 ([8]; Smad4-lacking fibroblasts, FIG. 2D): blocked or strongly inhibited

C/C(=C\c1ccccc1)CN(CC1CCNCC1)C(=O)NC1CCCCC1 [Compound 11H, (E)-3-cyclohexyl-1-(2-methyl-3-phenylallyl)-1-(piperidin-4-ylmethyl)urea]
Activation of the TGF-β reporter gene in hippocampi compared to PBS [9]: twice the levels
TGF-β agonist activity ([3]; data of FIGS. 1A-1J): TGF-β-agonists
Concentration completely dissolved in PBS (Dissolution in PBS): ≥ 3000 µg/mL
Synergistic effect with TGF-β1 in the absence of Smad2 or Smad3 ([8]; Smad2 (FIG. 2B) or Smad3 knock-out fibroblasts): blocked

N#Cc1ccc(-c2ccc(OCCCCCCC(=O)NO)cc2)cc1 [Compound A-161906]
IC50 (HDAC 1 and 2): 9 nM
